Tests used:
Format in all cases: biochemical
JAK3 = biological target: T1, JAK3 (Homo sapiens, UniProt P52333); experiment: JAK3 Assay (Caliper EZ Reader, fluoresceinated peptide); details: ATP 3.5 μM; JAK3 0.5 nM; 30 minutes at room temperature; read-out: JAK3 inhibition
T1 sequence (P52333 1-1124): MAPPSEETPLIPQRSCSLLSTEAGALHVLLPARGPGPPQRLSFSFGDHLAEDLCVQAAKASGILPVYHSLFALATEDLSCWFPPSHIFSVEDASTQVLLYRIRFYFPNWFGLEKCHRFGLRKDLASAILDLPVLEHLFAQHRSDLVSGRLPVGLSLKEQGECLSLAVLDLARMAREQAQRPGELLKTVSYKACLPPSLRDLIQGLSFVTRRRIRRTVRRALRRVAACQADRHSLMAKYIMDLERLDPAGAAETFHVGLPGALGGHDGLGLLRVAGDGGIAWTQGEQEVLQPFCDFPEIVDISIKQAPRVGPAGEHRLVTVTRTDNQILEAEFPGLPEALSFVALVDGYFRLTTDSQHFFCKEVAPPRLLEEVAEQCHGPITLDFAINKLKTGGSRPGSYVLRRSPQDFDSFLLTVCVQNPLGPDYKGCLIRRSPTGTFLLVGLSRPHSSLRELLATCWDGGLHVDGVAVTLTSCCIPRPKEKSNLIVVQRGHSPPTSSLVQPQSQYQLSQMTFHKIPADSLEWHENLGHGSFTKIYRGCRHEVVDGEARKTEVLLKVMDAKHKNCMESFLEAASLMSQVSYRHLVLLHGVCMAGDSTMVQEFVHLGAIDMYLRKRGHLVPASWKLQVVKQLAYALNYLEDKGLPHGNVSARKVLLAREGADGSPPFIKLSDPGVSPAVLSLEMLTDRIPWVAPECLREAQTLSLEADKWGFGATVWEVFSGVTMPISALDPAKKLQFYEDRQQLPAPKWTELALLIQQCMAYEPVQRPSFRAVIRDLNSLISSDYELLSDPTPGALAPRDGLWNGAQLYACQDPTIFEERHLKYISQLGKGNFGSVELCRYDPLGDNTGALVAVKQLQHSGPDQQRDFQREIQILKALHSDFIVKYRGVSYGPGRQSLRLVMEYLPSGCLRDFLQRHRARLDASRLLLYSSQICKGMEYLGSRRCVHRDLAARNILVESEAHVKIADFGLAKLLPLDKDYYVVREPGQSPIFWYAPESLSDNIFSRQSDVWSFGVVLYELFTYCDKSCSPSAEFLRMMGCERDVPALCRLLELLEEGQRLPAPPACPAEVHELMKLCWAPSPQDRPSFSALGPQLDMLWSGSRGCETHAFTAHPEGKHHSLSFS

TYK2 = TYK2 (Homo sapiens, UniProt P29597); experiment: TYK2 Assay (Caliper EZ Reader, fluoresceinated peptide); details: ATP 35.4 μM; TYK2 10 nM; 10 minutes at room temperature; read-out: TYK2 inhibition
Experimental: 384-well plates in the left foot butoxy measured progress. The final assay volume was 25 μL, 250 nL 100× compounds, 10 μL enzyme mix and 15 μL substrate mix (fluoresceinated peptide and ATP) in assay buffer (50 mM HEPES (pH 7.5), 10 mM MgCl2, 0.01% TritonX-100, 0.01% Brij35, 0.5 mM EGTA and 2 mM DTT) prepared as test compound. B mixing the TYK2 with substrates and test compounds to start the reaction. The reaction mixture was incubated for 10 minutes at room temperature, then added 30 μL stop buffer for each sample to terminate the reaction with 50 mM EDTA. After termination of the kinase reaction, the proportion of phosphorylated product was determined as a fraction of total peptide substrate using Caliper EZ Reader 1. Inhibition data were calculated by comparison with 100% of the reaction mixture without enzyme inhibition and vehicle-only reaction mixture billion % inhibition compared. The final concentration of reagents in the assays is: ATP, 35.4 μM; TYK2 fluorescent peptide (5-FAM-KKKKEEIYFFF-CONH2), 3 μM; TYK2, 10 nM; and DMSO, 1% Dose response curve were generated to determine the concentration required for IC50 of TYK2 activity.

JAK2 = JAK2 (Homo sapiens, UniProt O60674); experiment: JAK2 Assay (Caliper EZ Reader, fluoresceinated peptide); details: ATP 11.4 μM; JAK2 0.25 nM; 15 minutes at room temperature; read-out: JAK2 inhibition
JAK1 = JAK1 (Homo sapiens, UniProt P23458); experiment: JAK Kinase Assay (JAK1, Caliper EZ Reader, fluoresceinated peptide); details: ATP 76.5 μM; JAK1 10 nM; 120 minutes at room temperature; read-out: JAK1 inhibition
JAK1, sequence (P23458 whole entry, species assumed): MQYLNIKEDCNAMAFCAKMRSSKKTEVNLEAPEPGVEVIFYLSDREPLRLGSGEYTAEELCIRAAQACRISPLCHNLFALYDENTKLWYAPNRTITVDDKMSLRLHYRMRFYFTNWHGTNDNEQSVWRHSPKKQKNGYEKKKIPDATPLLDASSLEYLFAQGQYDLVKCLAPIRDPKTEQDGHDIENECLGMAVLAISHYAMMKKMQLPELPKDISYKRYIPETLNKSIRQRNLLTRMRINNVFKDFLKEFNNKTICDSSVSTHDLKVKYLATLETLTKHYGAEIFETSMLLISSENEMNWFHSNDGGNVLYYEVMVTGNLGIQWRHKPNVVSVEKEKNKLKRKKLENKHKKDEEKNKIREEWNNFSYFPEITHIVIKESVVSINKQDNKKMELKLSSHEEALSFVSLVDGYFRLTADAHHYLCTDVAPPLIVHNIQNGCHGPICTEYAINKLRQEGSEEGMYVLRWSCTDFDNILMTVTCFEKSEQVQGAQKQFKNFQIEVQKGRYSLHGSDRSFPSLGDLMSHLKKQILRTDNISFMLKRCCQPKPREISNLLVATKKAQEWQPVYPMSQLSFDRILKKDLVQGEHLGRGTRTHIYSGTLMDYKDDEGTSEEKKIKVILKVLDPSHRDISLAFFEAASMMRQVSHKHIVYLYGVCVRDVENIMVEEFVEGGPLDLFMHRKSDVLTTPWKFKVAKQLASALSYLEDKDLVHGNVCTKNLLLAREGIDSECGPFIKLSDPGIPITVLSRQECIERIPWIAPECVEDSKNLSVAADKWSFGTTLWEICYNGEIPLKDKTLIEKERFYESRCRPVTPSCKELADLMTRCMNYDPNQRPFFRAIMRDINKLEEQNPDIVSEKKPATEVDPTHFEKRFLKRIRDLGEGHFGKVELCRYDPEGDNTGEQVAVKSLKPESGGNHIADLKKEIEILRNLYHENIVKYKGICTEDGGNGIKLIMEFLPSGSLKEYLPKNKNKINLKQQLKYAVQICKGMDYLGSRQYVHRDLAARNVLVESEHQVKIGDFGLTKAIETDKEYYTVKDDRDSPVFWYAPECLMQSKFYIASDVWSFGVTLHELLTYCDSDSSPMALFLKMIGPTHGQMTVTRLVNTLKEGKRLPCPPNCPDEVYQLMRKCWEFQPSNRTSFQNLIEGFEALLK

TYK2, sequence (P29597 whole entry, species assumed): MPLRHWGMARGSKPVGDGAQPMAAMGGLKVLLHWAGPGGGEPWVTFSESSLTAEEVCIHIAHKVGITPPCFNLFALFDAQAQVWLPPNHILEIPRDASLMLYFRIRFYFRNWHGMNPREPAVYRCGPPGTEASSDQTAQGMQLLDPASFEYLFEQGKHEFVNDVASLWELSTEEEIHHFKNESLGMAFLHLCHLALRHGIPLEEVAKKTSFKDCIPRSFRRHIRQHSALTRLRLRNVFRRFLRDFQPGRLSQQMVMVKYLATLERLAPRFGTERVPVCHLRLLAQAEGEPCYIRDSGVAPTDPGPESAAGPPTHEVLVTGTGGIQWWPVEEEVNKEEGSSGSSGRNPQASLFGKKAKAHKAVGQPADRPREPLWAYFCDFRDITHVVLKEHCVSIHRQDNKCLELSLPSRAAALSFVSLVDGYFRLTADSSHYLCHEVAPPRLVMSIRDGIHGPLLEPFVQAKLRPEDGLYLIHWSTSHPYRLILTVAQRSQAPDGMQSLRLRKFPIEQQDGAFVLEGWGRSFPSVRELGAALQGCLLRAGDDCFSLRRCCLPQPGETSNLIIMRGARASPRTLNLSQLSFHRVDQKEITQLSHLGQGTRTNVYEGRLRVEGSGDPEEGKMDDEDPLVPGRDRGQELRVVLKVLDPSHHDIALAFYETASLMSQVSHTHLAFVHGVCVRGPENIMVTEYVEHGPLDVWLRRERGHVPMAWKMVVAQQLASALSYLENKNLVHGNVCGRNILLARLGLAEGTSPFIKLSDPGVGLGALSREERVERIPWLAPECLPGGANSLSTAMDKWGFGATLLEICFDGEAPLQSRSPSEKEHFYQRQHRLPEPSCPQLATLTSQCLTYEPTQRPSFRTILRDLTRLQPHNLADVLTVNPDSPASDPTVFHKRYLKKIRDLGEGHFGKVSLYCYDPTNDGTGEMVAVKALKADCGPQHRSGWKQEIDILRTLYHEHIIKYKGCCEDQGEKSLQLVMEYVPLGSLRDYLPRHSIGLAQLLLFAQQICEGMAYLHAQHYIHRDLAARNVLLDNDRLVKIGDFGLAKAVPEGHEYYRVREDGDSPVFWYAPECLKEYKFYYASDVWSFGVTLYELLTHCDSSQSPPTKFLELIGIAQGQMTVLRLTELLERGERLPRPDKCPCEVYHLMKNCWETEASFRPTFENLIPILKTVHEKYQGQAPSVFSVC
JAK2, sequence (O60674 whole entry, species assumed): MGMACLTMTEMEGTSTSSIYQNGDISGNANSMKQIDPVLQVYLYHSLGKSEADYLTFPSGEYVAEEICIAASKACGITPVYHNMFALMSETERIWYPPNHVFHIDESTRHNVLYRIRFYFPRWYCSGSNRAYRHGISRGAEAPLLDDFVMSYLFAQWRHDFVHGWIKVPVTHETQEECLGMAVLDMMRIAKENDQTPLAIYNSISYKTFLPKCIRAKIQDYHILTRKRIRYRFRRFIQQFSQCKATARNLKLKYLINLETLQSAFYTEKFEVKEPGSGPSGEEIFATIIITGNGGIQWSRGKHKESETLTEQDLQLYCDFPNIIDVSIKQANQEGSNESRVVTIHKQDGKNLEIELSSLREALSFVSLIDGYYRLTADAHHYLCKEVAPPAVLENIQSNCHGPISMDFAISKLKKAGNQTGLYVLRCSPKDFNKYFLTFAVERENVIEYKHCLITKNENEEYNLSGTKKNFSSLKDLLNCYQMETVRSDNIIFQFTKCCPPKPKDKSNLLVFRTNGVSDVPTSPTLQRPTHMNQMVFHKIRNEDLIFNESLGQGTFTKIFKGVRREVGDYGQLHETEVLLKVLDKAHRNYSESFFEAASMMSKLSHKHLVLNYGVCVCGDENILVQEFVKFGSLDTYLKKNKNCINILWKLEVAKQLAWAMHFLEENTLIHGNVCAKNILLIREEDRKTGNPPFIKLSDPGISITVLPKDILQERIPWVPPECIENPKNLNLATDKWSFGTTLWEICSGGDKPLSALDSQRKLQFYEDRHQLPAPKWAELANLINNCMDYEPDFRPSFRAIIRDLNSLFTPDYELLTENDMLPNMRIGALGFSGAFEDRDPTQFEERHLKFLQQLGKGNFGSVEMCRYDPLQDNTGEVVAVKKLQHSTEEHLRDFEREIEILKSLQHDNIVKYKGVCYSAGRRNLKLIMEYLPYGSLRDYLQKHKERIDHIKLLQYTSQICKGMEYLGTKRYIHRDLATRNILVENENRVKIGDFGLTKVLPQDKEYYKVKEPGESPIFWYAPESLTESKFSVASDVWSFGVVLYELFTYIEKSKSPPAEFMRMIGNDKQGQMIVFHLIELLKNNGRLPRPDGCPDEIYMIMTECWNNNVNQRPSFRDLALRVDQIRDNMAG

SMILES: C#Cc1ccc(C(=O)N2CC3(CC(N(C)c4ncnc5[nH]ccc45)C3)C2)cc1 [Compound 26, (4-ethynylphenyl)(6-(methyl(7H-pyrrolo[2,3-d]pyrimidin-4-yl)amino)-2-azaspiro[3.3]heptan-2-yl)methanone]
- IC50 (JAK3): ≥ 10000 nM
- IC50 (TYK2): 1000 to 10000 nM
- IC50 (JAK2): 100 to 1000 nM
- IC50 (JAK1): ≤ 10 nM

SMILES: CN(c1ncnc2[nH]ccc12)C1CC2(C1)CN(C(=O)c1ccc(Cl)cn1)C2 [Compound 32, (5-chloropyridin-2-yl)(6-(methyl(7H-pyrrolo[2,3-d]pyrimidin-4-yl)amino)-2-azaspiro[3.3]heptan-2-yl)methanone]
- IC50 (JAK3): ≥ 10000 nM
- IC50 (TYK2): ≥ 10000 nM
- IC50 (JAK2): 1000 to 10000 nM
- IC50 (JAK1): 10 to 100 nM

SMILES: CN(c1ncnc2[nH]ccc12)C1CC2(C1)CN(C(=O)c1cc3ccccc3[nH]1)C2 [Compound 30, (1H-indol-2-yl)(6-(methyl(7H-pyrrolo[2,3-d]pyrimidin-4-yl)amino)-2-azaspiro[3.3]heptan-2-yl)methanone]
- IC50 (JAK3): ≥ 10000 nM
- IC50 (TYK2): 1000 to 10000 nM
- IC50 (JAK2): 100 to 1000 nM
- IC50 (JAK1): 10 to 100 nM

SMILES: CN(c1ncnc2[nH]ccc12)C1CC2(C1)CN(C(=O)c1ccc(C#N)cc1F)C2 [Compound 14, 3-fluoro-4-(6-(methyl(7H-pyrrolo[2,3-d]pyrimidin-4-yl)amino)-2-azaspiro[3.3]heptane-2-carbonyl)benzonitrile]
- IC50 (JAK3): ≥ 10000 nM
- IC50 (TYK2): ≥ 10000 nM
- IC50 (JAK2): 100 to 1000 nM
- IC50 (JAK1): 10 to 100 nM

SMILES: CN(c1ncnc2[nH]ccc12)C1CC2(C1)CN(C(=O)c1ccc(C#N)c(F)c1F)C2 [Compound 53, 2,3-difluoro-4-(6-(methyl(7H-pyrrolo[2,3-d]pyrimidin-4-yl)amino)-2-azaspiro[3.3]heptane-2-carbonyl)benzonitrile]
- IC50 (JAK3): 1000 to 10000 nM
- IC50 (TYK2): 1000 to 10000 nM
- IC50 (JAK2): 100 to 1000 nM
- IC50 (JAK1): ≤ 10 nM

SMILES: Cc1ccsc1C(=O)N1CC2(CC(N(C)c3ncnc4[nH]ccc34)C2)C1 [Compound 28, (6-(methyl(7H-pyrrolo[2,3-d]pyrimidin-4-yl)amino)-2-azaspiro[3.3]heptan-2-yl)(3-methylthiophen-2-yl)methanone]
- IC50 (JAK3): ≥ 10000 nM
- IC50 (TYK2): ≥ 10000 nM
- IC50 (JAK2): 100 to 1000 nM
- IC50 (JAK1): 10 to 100 nM

SMILES: COc1ccc(C(=O)N2CC3(CC(N(C)c4ncnc5[nH]ccc45)C3)C2)cc1 [Compound 24, (4-methoxyphenyl)(6-(methyl(7H-pyrrolo[2,3-d]pyrimidin-4-yl)amino)-2-azaspiro[3.3]heptan-2-yl)methanone]
- IC50 (JAK3): ≥ 10000 nM
- IC50 (TYK2): ≥ 10000 nM
- IC50 (JAK2): 1000 to 10000 nM
- IC50 (JAK1): 10 to 100 nM

SMILES: CN(c1ncnc2[nH]ccc12)C1CC2(C1)CN(C(=O)Nc1cccc(Cl)c1)C2 [Compound 33, N-(3-chlorophenyl)-6-(methyl(7H-pyrrolo[2,3-d]pyrimidin-4-yl)amino)-2-azaspiro[3.3]heptane-2-carboxamide]
- IC50 (JAK3): ≥ 10000 nM
- IC50 (TYK2): ≥ 10000 nM
- IC50 (JAK2): 1000 to 10000 nM
- IC50 (JAK1): 100 to 1000 nM

SMILES: CN(c1ncnc2[nH]ccc12)C1CC2(C1)CN(C(=O)c1ccc(F)cc1)C2 [Compound 27, (4-fluorophenyl)(6-(methyl(7H-pyrrolo[2,3-d]pyrimidin-4-yl)amino)-2-azaspiro[3.3]heptan-2-yl)methanone]
- IC50 (JAK3): ≥ 10000 nM
- IC50 (TYK2): ≥ 10000 nM
- IC50 (JAK2): 1000 to 10000 nM
- IC50 (JAK1): 10 to 100 nM

SMILES: C#Cc1ccc(C(=O)N2CC3(CC(N(C)c4ncnc5[nH]ccc45)C3)C2)cc1Cl [Compound 46, (3-chloro-4-ethynylphenyl)(6-(methyl(7H-pyrrolo[2,3-d]pyrimidin-4-yl)amino)-2-azaspiro[3.3]heptan-2-yl)methanone]
- IC50 (JAK3): ≥ 10000 nM
- IC50 (JAK2): 100 to 1000 nM
- IC50 (JAK1): ≤ 10 nM

SMILES: CN(c1ncnc2[nH]ccc12)C1CCC2(CC1)CCN(C(=O)c1ccc(C#N)c(F)c1)CC2 [Compound 87, 2-Fluoro-4-{9-[methyl-(7H-pyrrolo[2,3-d]pyrimidin-4-yl)-amino]-3-aza-spiro[5.5]undecane-3-carbonyl}-benzonitrile]
- IC50 (JAK3): 100 to 1000 nM
- IC50 (JAK2): 100 to 1000 nM
- IC50 (JAK1): 100 to 1000 nM

SMILES: CN(c1ncnc2[nH]ccc12)C1CCC2(CC1)CCN(C(=O)Cc1c[nH]c3ccccc13)CC2 [Compound 93, 2-(1H-Indol-3-yl)-1-{9-[methyl-(7H-pyrrolo[2,3-d]pyrimidin-4-yl)-amino]-3-aza-spiro[5.5]undec-3-yl}-ethanone]
- IC50 (JAK3): 100 to 1000 nM
- IC50 (JAK2): 100 to 1000 nM
- IC50 (JAK1): 100 to 1000 nM

SMILES: CN(c1ncnc2[nH]ccc12)C1CCC2(CC1)CCN(CC(F)(F)F)CC2 [Compound 79, Methyl-(7H-pyrrolo[2,3-d]pyrimidin-4-yl)-[3-(2,2,2-trifluoro-ethyl)-3-aza-spiro[5.5]undec-9-yl]-amine]
- IC50 (JAK3): 100 to 1000 nM
- IC50 (JAK2): 100 to 1000 nM
- IC50 (JAK1): 100 to 1000 nM

SMILES: CN(c1ncnc2[nH]ccc12)C1CC2(C1)CN(C(=O)c1ccc(C#N)c(F)c1)C2 [Compound 1, 2-fluoro-4-(6-(methyl(7H-pyrrolo[2,3-d]pyrimidin-4-yl)amino)-2-azaspiro[3.3]heptane-2-carbonyl)benzonitrile]
- IC50 (JAK3): ≥ 10000 nM
- IC50 (TYK2): ≥ 10000 nM
- IC50 (JAK2): 1000 to 10000 nM
- IC50 (JAK1): 10 to 100 nM

SMILES: CN(c1ncnc2[nH]ccc12)C1CC2(C1)CN(C(=O)c1ccc(C(F)(F)F)cc1)C2 [Compound 31, (6-(methyl(7H-pyrrolo[2,3-d]pyrimidin-4-yl)amino)-2-azaspiro[3.3]heptan-2-yl)(4-(trifluoromethyl)phenyl)methanone]
- IC50 (JAK3): ≥ 10000 nM
- IC50 (TYK2): ≥ 10000 nM
- IC50 (JAK2): 1000 to 10000 nM
- IC50 (JAK1): 100 to 1000 nM

SMILES: COC(=O)N1CCC2(CCC(N(C)c3ncnc4[nH]ccc34)CC2)CC1 [Compound 73, Methyl 9-(methyl(7H-pyrrolo[2,3-d]pyrimidin-4-yl)amino)-3-azaspiro[5.5]undecane-3-carboxylate]
- IC50 (JAK3): 100 to 1000 nM
- IC50 (JAK2): 100 to 1000 nM
- IC50 (JAK1): ≤ 10 nM

SMILES: CN(c1ncnc2[nH]ccc12)C1CCC2(CC1)CCN(C(=O)CO)CC2 [Compound 77, 2-Hydroxy-1-{9-[methyl-(7H-pyrrolo[2,3-d]pyrimidin-4-yl)-amino]-3-aza-spiro[5.5]undec-3-yl}-ethanone]
- IC50 (JAK3): 100 to 1000 nM
- IC50 (JAK2): 10 to 100 nM
- IC50 (JAK1): 10 to 100 nM

SMILES: CN(c1ncnc2[nH]ccc12)C1CCC2(CC1)CCN(C(=O)c1cnccn1)CC2 [Compound 88, {9-[Methyl-(7H-pyrrolo[2,3-d]pyrimidin-4-yl)-amino]-3-aza-spiro[5.5]undec-3-yl}-pyrazin-2-yl-methanone]
- IC50 (JAK3): 1000 to 10000 nM
- IC50 (JAK2): 100 to 1000 nM
- IC50 (JAK1): 100 to 1000 nM

SMILES: Cc1cncc(C(=O)N2CCC3(CCC(N(C)c4ncnc5[nH]ccc45)CC3)CC2)n1 [Compound 90, (6-Methyl-pyrazin-2-yl)-{9-[methyl-(7H-pyrrolo[2,3-d]pyrimidin-4-yl)-amino]-3-aza-spiro[5.5]undec-3-yl}-methanone]
- IC50 (JAK3): 1000 to 10000 nM
- IC50 (JAK2): 100 to 1000 nM
- IC50 (JAK1): 100 to 1000 nM

SMILES: CC(C)OC(=O)N1CCC2(CCC(N(C)c3ncnc4c3CCN4)CC2)CC1 [Compound 98, 9-[(6,7-Dihydro-5H-pyrrolo[2,3-d]pyrimidin-4-yl)-methyl-amino]-3-aza-spiro[5.5]undecane-3-carboxylic acid isopropyl ester]
- IC50 (JAK3): 1000 to 10000 nM
- IC50 (JAK2): 100 to 1000 nM
- IC50 (JAK1): 10 to 100 nM
